{"source": "patent US4918056A", "about": "“2-substituted arabinopyranosyl nucleosides and nucleotides” (priority 1986, dated 1990)", "system": "L1210/0 leukemia", "assay": "Therapeutic activity against i.p. inoculated L1210/0 leukemic mice", "format": "in vivo, mouse (DBA/2N female)", "conditions": "for Mean ± SD survival: control 6.7 ± 0.1; for Median survival: control 7", "method": "The control group consisted of 20 mice injected with a 0.2 ml suspension of 0.5% Tween 80 in saline."}
{"smiles": "COC1OC[C@@H](OC(C)=O)[C@@H](OC(C)=O)[C@]1(F)n1ccc(=O)[nH]c1=O", "note": "(stereo partly drawn) [compound 85024, Methyl 3,4-di-0-acetyl-2-deoxy-2(R)-[1H,3H-2,4-dioxo-1-pyrimidinyl]-2-fluoro-α-D-arabinopyranoside [5a] and methyl 3,4-di-0-acetyl-2-deoxy-2(R)-[1H,3H-2,4-dioxo-1-pyrimidinyl]-2-fluoro-β-D-arabinopyranoside [6a]]", "values": [{"measurement": "Mean Animal Weight (on the day of death)", "setting": "50 mkd × 5 i.p.", "result": 23.4, "unit": "g"}, {"measurement": "Survival Range", "setting": "50 mkd × 5 i.p.", "result": "7 to 8", "unit": "days"}, {"measurement": "% ILS (increase in life span)", "setting": "50 mkd × 5 i.p., N.S.", "result": 7, "unit": "%"}, {"measurement": "Mean ± SD survival", "setting": "50 mkd × 5 i.p.", "result": "7.2 ± 0.2", "unit": "days"}, {"measurement": "Median survival", "setting": "50 mkd × 5 i.p.", "result": 7, "unit": "days"}, {"measurement": "Mean Animal Weight (on the day of death)", "setting": "100 mkd × 5 i.p.", "result": 24.0, "unit": "g"}, {"measurement": "Survival Range", "setting": "100 mkd × 5 i.p.", "result": "8-8 days"}, {"measurement": "% ILS (increase in life span)", "setting": "100 mkd × 5 i.p., N.S.", "result": 19, "unit": "%"}, {"measurement": "Mean ± SD survival", "setting": "100 mkd × 5 i.p.", "result": "8.0 ± 0", "unit": "days"}, {"measurement": "Median survival", "setting": "100 mkd × 5 i.p.", "result": 8, "unit": "days"}, {"measurement": "Mean Animal Weight (on the day of death)", "setting": "200 mkd × 5 i.p.", "result": 22.0, "unit": "g"}, {"measurement": "Survival Range", "setting": "200 mkd × 5 i.p.", "result": "8 to 10", "unit": "days"}, {"measurement": "Mean ± SD survival", "setting": "200 mkd × 5 i.p.", "result": "8.8 ± 0.2", "unit": "days"}, {"measurement": "Median survival", "setting": "200 mkd × 5 i.p.", "result": 9, "unit": "days"}, {"measurement": "% ILS (increase in life span)", "setting": "200 mkd × 5 i.p., p < 0.01", "result": 31, "unit": "%"}, {"measurement": "Mean Animal Weight (on the day of death)", "setting": "400 mkd × 5 i.p.", "result": 18.8, "unit": "g"}, {"measurement": "Survival Range", "setting": "400 mkd × 5 i.p.", "result": "9 to 11", "unit": "days"}, {"measurement": "Mean ± SD survival", "setting": "400 mkd × 5 i.p.", "result": "9.9 ± 0.2", "unit": "days"}, {"measurement": "Median survival", "setting": "400 mkd × 5 i.p.", "result": 10, "unit": "days"}, {"measurement": "% ILS (increase in life span)", "setting": "400 mkd × 5 i.p., p < 0.01", "result": 48, "unit": "%"}, {"measurement": "Mean Animal Weight (on the day of death)", "setting": "500 mkd × 5 i.p.", "result": 17.3, "unit": "g"}, {"measurement": "Survival Range", "setting": "500 mkd × 5 i.p.", "result": "10 to 11", "unit": "days"}, {"measurement": "Mean ± SD survival", "setting": "500 mkd × 5 i.p.", "result": "10.4 ± 0.2", "unit": "days"}, {"measurement": "Median survival", "setting": "500 mkd × 5 i.p.", "result": 10, "unit": "days"}, {"measurement": "% ILS (increase in life span)", "setting": "500 mkd × 5 i.p., p < 0.01", "result": 55, "unit": "%"}, {"measurement": "Mean Animal Weight (on the day of death)", "setting": "600 mkd × 5 i.p.", "result": 16.8, "unit": "g"}, {"measurement": "Survival Range", "setting": "600 mkd × 5 i.p.", "result": "7 to 11", "unit": "days"}, {"measurement": "Mean ± SD survival", "setting": "600 mkd × 5 i.p.", "result": "9.4 ± 0.8", "unit": "days"}, {"measurement": "Median survival", "setting": "600 mkd × 5 i.p.", "result": 10, "unit": "days"}, {"measurement": "% ILS (increase in life span)", "setting": "600 mkd × 5 i.p., p < 0.5", "result": 40, "unit": "%"}, {"measurement": "Mean Animal Weight (on the day of death)", "setting": "700 mkd × 5 i.p.", "result": 16.6, "unit": "g"}, {"measurement": "Survival Range", "setting": "700 mkd × 5 i.p.", "result": "4 to 7", "unit": "days"}, {"measurement": "% ILS (increase in life span)", "setting": "700 mkd × 5 i.p., N.S.", "result": -10, "unit": "%"}, {"measurement": "Mean ± SD survival", "setting": "700 mkd × 5 i.p.", "result": "6.0 ± 0.6", "unit": "days"}, {"measurement": "Median survival", "setting": "700 mkd × 5 i.p.", "result": 7, "unit": "days"}, {"measurement": "% ILS (increase in life span)", "setting": "800 mkd × 5 i.p.", "result": -70, "unit": "%"}, {"measurement": "Mean Animal Weight (on the day of death)", "setting": "800 mkd × 5 i.p.", "result": 19.5, "unit": "g"}, {"measurement": "Survival Range", "setting": "800 mkd × 5 i.p.", "result": "2-2 days"}, {"measurement": "Mean ± SD survival", "setting": "800 mkd × 5 i.p.", "result": "2.0 ± 0", "unit": "days"}, {"measurement": "Median survival", "setting": "800 mkd × 5 i.p.", "result": 2, "unit": "days"}, {"measurement": "dose of maximal therapeutic efficacy", "setting": "5 day i.p. schedule, 1 dose per day days 1-5", "result": 500, "unit": "mg/kg/day"}, {"measurement": "mortality due to drug toxicity", "setting": "i.p. days 1-5, 800 mkd", "result": "eventual mortality due to drug toxicity"}, {"measurement": "host toxicity", "setting": "i.p. days 1-5, above 500 mkd, evidenced by increased weight loss", "result": "increased host toxicity"}]}
